According to PMC10649961, “Novel Mitochondria-Targeted Amphiphilic Aminophosphonium Salts and Lipids Nanoparticles: Synthesis, Antitumor Activity and Toxicity” (Nanomaterials, 2023):
Like-named read-outs stand apart in the source and are kept apart here.

Assays:
[1] = tested on: MRSA-2; test: Antimicrobial activity, serial microdilutions, MRSA-2; format: cell-based, S. aureus; conditions: Staphylococcus aureus; for MIC: read-out: Minimum Inhibitory Concentration (MIC); for MBC: read-out: Minimum bactericidal and fungicidal concentrations (MBC, MFC)
Experimental: (§1) The antimicrobial activity of test compounds was determined by serial microdilutions in 96-well plates using Mueller-Hinton broth for bacterial culture and Sabouraud broth for yeast culture. Cultures of Gram-positive bacteria were used in the experiment: Staphylococcus aureus ATCC 6538 P FDA 209P, Bacillus cereus ATCC 10702 NCTC 8035, Enterococcus faecalis ATCC 29212; Gram-negative bacteria: Escherichia coli ATCC 25922, Pseudomonas aeruginosa ATCC 9027; and yeast: Candida albicans ATCC 10231, purchased from the State Collection of Pathogenic Microorganisms and Cell Cultures “SCPM-Obolensk” (Obolensk, Russia). Methicillin-resistant strains of S. aureus (MRSA) were isolated from patients with chronic tonsillitis (MRSA-1) and sinusitis (MRSA-2) in the bacteriological laboratory of the Republican Clinical Hospital (Kazan, Russia). The experiments were carried out in triplicate.

[2] = tested on: DU-145; test: cells; conditions: Homo sapiens, DU-145, 48 h, read-out: Cytotoxic Effects (IC50), DU-145, MTT assay, 48 h
[3] = tested on: PC3
[4] = tested on: Bacillus cereus ATCC 10702 NCTC 8035; test: Antimicrobial activity, serial microdilutions, Bc; format: cell-based; design: key to Minimum bactericidal and fungicidal concentrations (MBC, MFC): – means non-active; conditions: for MIC / MBC: Bacillus cereus; for MIC: read-out: Minimum Inhibitory Concentration (MIC); for MBC: read-out: Minimum bactericidal and fungicidal concentrations (MBC, MFC)
Experimental: as §1

[5] = tested on: M-HeLa; test: cells; conditions: Homo sapiens, 48 h, read-out: Cytotoxic Effects (IC50)
[6] = tested on: SK-OV-3
[7] = tested on: HuTu 80; test: cells; conditions: Homo sapiens, HuTu80, 48 h, read-out: Cytotoxic Effects (IC50)
[8] = tested on: MCF-7; test: cells; conditions: Homo sapiens, MCF7, 48 h, read-out: Cytotoxic Effects (IC50)
[9] = tested on: Staphylococcus aureus ATCC 6538 P FDA 209P; test: Antimicrobial activity, serial microdilutions, Sa; format: cell-based; design: key to Minimum bactericidal and fungicidal concentrations (MBC, MFC): – means non-active; conditions: for MIC / MBC: Staphylococcus aureus; for MIC: read-out: Minimum Inhibitory Concentration (MIC); for MBC: read-out: Minimum bactericidal and fungicidal concentrations (MBC, MFC)
Experimental: as §1

[10] = tested on: Hep G2
[11] = tested on: PC3; test: cells; conditions: Homo sapiens, PC-3, 48 h, read-out: Cytotoxic Effects (IC50), PC3, MTT assay, 48 h
[12] = tested on: T98G; test: cells; conditions: Homo sapiens, 48 h, read-out: Cytotoxic Effects (IC50)
[13] = tested on: Candida albicans ATCC 10231; test: Antimicrobial activity, serial microdilutions, Ca; format: cell-based; design: key to Minimum Inhibitory Concentration (MIC) / Minimum bactericidal and fungicidal concentrations (MBC, MFC): – means non-active; conditions: for Minimum Inhibitory Concentration (MIC) / Minimum bactericidal and fungicidal concentrations (MBC, MFC): Ca; for MIC / MBC: Candida albicans, ATCC10231; for MIC: read-out: Minimum Inhibitory Concentration (MIC); for MBC: read-out: Minimum bactericidal and fungicidal concentrations (MBC, MFC)
Experimental: as §1

[14] = tested on: A549; test: cells; conditions: Homo sapiens, A549, 48 h, read-out: Cytotoxic Effects (IC50)
[15] = tested on: M-HeLa
[16] = tested on: T98G
[17] = tested on: DU-145
[18] = tested on: MCF-7
[19] = tested on: Enterococcus faecalis ATCC 29212; test: Antimicrobial activity, serial microdilutions, Ef; format: cell-based; design: key to Minimum Inhibitory Concentration (MIC) / Minimum bactericidal and fungicidal concentrations (MBC, MFC): – means non-active; conditions: for MIC / MBC: Enterococcus faecalis; for MIC: ATCC29212, read-out: Minimum Inhibitory Concentration (MIC); for MBC: ATCC29212, read-out: Minimum bactericidal and fungicidal concentrations (MBC, MFC)
Experimental: as §1

[20] = tested on: MRSA-1; test: Antimicrobial activity, serial microdilutions, MRSA-1; format: cell-based, S. aureus; design: key to Minimum Inhibitory Concentration (MIC) / Minimum bactericidal and fungicidal concentrations (MBC, MFC): – means non-active; conditions: for MIC / MBC: Staphylococcus aureus; for MIC: read-out: Minimum Inhibitory Concentration (MIC); for MBC: read-out: Minimum bactericidal and fungicidal concentrations (MBC, MFC)
Experimental: as §1

[21] = tested on: Pseudomonas aeruginosa ATCC 9027; test: Antimicrobial activity, serial microdilutions, Pa; format: cell-based; design: key to Minimum Inhibitory Concentration (MIC) / Minimum bactericidal and fungicidal concentrations (MBC, MFC): – means non-active; conditions: for MBC / MIC: Pseudomonas aeruginosa; for MBC: ATCC9027, read-out: Minimum bactericidal and fungicidal concentrations (MBC, MFC); for MIC: ATCC9027, read-out: Minimum Inhibitory Concentration (MIC)
Experimental: as §1

[22] = tested on: Hep G2; test: cells; conditions: Homo sapiens, HepG2, 48 h, read-out: Cytotoxic Effects (IC50)
[23] = tested on: A549
[24] = tested on: SK-OV-3; test: cells; conditions: Homo sapiens, SK-OV-3, 48 h, read-out: Cytotoxic Effects (IC50)
[25] = tested on: PANC-1
[26] = tested on: PANC-1; test: cells; conditions: Homo sapiens, PANC-1, 48 h, read-out: Cytotoxic Effects (IC50)
[27] = tested on: HuTu 80
[28] = tested on: Escherichia coli ATCC 25922; test: Antimicrobial activity, serial microdilutions, Ec; format: cell-based; design: key to Minimum Inhibitory Concentration (MIC) / Minimum bactericidal and fungicidal concentrations (MBC, MFC): – means non-active; conditions: for MIC / MBC: Escherichia coli; for MIC: ATCC25922, read-out: Minimum Inhibitory Concentration (MIC); for MBC: ATCC25922, read-out: Minimum bactericidal and fungicidal concentrations (MBC, MFC)
Experimental: as §1

[29] = reference normal cell line not marked at the place (ns cells)
[30] = calculated relative to the cell line Chang liver (b)
[31] = calculated relative to the cell line WI38 (a)

SMILES	MIC [1] [µM]	MBC [1] [µM]	IC50 [2] [µM]	MIC ([4]; Bc) [µM]	MBC [4] [µM]	IC50 [5] [µM]	selectivity index (SI) [6, 29]	IC50 [7] [µM]	IC50 [8] [µM]	MIC [9] [µM]	MBC [9] [µM]	IC50 [11] [µM]	IC50 [12] [µM]	IC50 [14] [µM]	MIC [19] [µM]	MBC [19] [µM]	MIC [20] [µM]	IC50 [22] [µM]	IC50 [24] [µM]	IC50 [26] [µM]	also measured
CCCCCCCCC[P+](c1ccccc1)(N(CC)CC)N(CC)CC [5c, Bis(diethylamino)(nonyl)(phenyl)phosphonium iodide]	3.9 ± 0.4	62.5 ± 5.4	0.9 ± 0.07	3.9 ± 0.3	500 ± 48	1.7 ± 0.1	ns (ns—no selectivity)	2.8 ± 0.3	3.1 ± 0.2	3.9 ± 0.3	125 ± 10	10 ± 0.9	2.7 ± 0.3	8.7 ± 0.7	31.3 ± 2.2	500 ± 48	3.9 ± 0.3	2.3 ± 0.1	14.8 ± 1.2	2.8 ± 0.2	selectivity index (SI) [3, 29]: ns (ns—no selectivity); selectivity index (SI) [10, 30]: 1.8; Minimum Inhibitory Concentration (MIC) [13]: –; Minimum bactericidal and fungicidal concentrations (MBC, MFC) [13]: –; selectivity index (SI) [15, 30]: 2.4; selectivity index (SI) [16, 30]: 1.5; selectivity index (SI) [17, 30]: 4.6; selectivity index (SI) [18, 30]: 1.3; MBC [20]: 62.5 ± 5.5 µM; Minimum Inhibitory Concentration (MIC) [21]: –; MBC [21]: > 500 µM; selectivity index (SI) [23, 29]: ns (ns—no selectivity); selectivity index (SI) [25, 30]: 1.5; selectivity index (SI) [27, 30]: 1.5; MIC [28]: 250 ± 19 µM; MBC [28]: 500 ± 48 µM
CCCCCCCCCCCCCC[P+](c1ccccc1)(c1ccccc1)N(CC)CC [6e, (Diethylamino)diphenyl(tetradecyl)phosphonium bromide]	0.5 ± 0.03	0.5 ± 0.04	0.4 ± 0.02	0.9 ± 0.08	31.3 ± 2.5	0.4 ± 0.03		0.07 ± 0.005	1.2 ± 0.1	0.5 ± 0.04	0.5 ± 0.04	1.5 ± 0.1	1.1 ± 0.09	2.1 ± 0.1	0.5 ± 0.03	0.9 ± 0.1	0.5 ± 0.04	1.4 ± 0.1	1.6 ± 0.1	0.3 ± 0.02	selectivity index (SI) [3, 31]: 1.9; selectivity index (SI) [6, 31]: 1.8; selectivity index (SI) [10, 31]: 2.0; MIC [13]: 1.9 ± 0.1 µM; MBC [13]: 15.6 ± 1.2 µM; selectivity index (SI) [15, 31]: 7.0; selectivity index (SI) [16, 31]: 2.5; selectivity index (SI) [17, 31]: 7.0; selectivity index (SI) [18, 31]: 2.3; MBC [20]: 1.9 ± 0.1 µM; MIC [21]: 3.9 ± 0.3 µM; MBC [21]: 3.9 ± 0.4 µM; selectivity index (SI) [23, 31]: 1.3; selectivity index (SI) [25, 31]: 9.3; selectivity index (SI) [27, 31]: 40; MIC [28]: 31.3 ± 2.4 µM; MBC [28]: 125 ± 11 µM
CCCCCCCCCC[P+](c1ccccc1)(c1ccccc1)N(CC)CC [6d, Decyl(diethylamino)diphenylphosphonium iodide]	0.5 ± 0.03	0.9 ± 0.08	0.43 ± 0.03	0.9 ± 0.08	250 ± 21	0.24 ± 0.02	ns (ns—no selectivity)	0.35 ± 0.02	1.6 ± 0.1	0.9 ± 0.08	62.5 ± 5.4	1.4 ± 0.1	0.6 ± 0.05	8.2 ± 0.7	3.9 ± 0.3	250 ± 19	0.5 ± 0.03	1.3 ± 0.1	3.9 ± 0.4	0.4 ± 0.03	selectivity index (SI) [3, 29]: ns (ns—no selectivity); selectivity index (SI) [10, 29]: ns (ns—no selectivity); MIC [13]: 62.5 ± 5.4 µM; MBC [13]: 250 ± 19 µM; selectivity index (SI) [15, 31]: 1.6; selectivity index (SI) [16, 29]: ns (ns—no selectivity); selectivity index (SI) [17, 31]: 1.0; selectivity index (SI) [18, 29]: ns (ns—no selectivity); MBC [20]: 0.9 ± 0.07 µM; MIC [21]: 125 ± 10 µM; MBC [21]: 125 ± 9 µM; selectivity index (SI) [23, 29]: ns (ns—no selectivity); selectivity index (SI) [25, 31]: 1.0; selectivity index (SI) [27, 31]: 1.1; MIC [28]: 62.5 ± 5.3 µM; MBC [28]: 62.5 ± 5.5 µM
CCCCCCCC[N+](CC)(CC)CC [compound 7, Triethyloctylammonium iodide, reference compound]	250 ± 20	500 ± 47	58 ± 4.1	500 ± 47		16.1 ± 1.3	ns (ns—no selectivity)	1.9 ± 0.2	29.1 ± 2	250 ± 20		32.7 ± 2.3	> 100	> 100			250 ± 19	> 100	69 ± 4.8	44.6 ± 3.1	selectivity index (SI) [3, 31]: 1.5; Minimum bactericidal and fungicidal concentrations (MBC, MFC) ([4]; Bc): –; Minimum bactericidal and fungicidal concentrations (MBC, MFC) [9]: –; selectivity index (SI) [10, 29]: ns (ns—no selectivity); Minimum Inhibitory Concentration (MIC) [13]: –; Minimum bactericidal and fungicidal concentrations (MBC, MFC) [13]: –; selectivity index (SI) [15, 31]: 3.0; selectivity index (SI) [16, 29]: ns (ns—no selectivity); selectivity index (SI) [17, 29]: ns (ns—no selectivity); selectivity index (SI) [18, 31]: 1.7; Minimum Inhibitory Concentration (MIC) [19]: –; Minimum bactericidal and fungicidal concentrations (MBC, MFC) [19]: –; Minimum bactericidal and fungicidal concentrations (MBC, MFC) [20]: –; Minimum Inhibitory Concentration (MIC) [21]: –; Minimum bactericidal and fungicidal concentrations (MBC, MFC) [21]: –; selectivity index (SI) [23, 29]: ns (ns—no selectivity); selectivity index (SI) [25, 31]: 1.1; selectivity index (SI) [27, 31]: 26; Minimum Inhibitory Concentration (MIC) [28]: –; Minimum bactericidal and fungicidal concentrations (MBC, MFC) [28]: –
CCCCCCCCCC[P+](c1ccccc1)(N(CC)CC)N(CC)CC [5d, Decylbis(diethylamino)(phenyl)phosphonium iodide]	0.9 ± 0.08	62.5 ± 5.2	0.45 ± 0.03	0.9 ± 0.08	500 ± 47	1.5 ± 0.1	ns (ns—no selectivity)	2.5 ± 0.1	0.7 ± 0.06	0.9 ± 0.07	125 ± 9	0.8 ± 0.06	0.7 ± 0.05	8.9 ± 0.7	15.6 ± 1.2	125 ± 9	0.9 ± 0.08	1.1 ± 0.09	10 ± 0.8	1.4 ± 0.1	selectivity index (SI) [3, 30]: 1.6; selectivity index (SI) [10, 30]: 1.2; Minimum bactericidal and fungicidal concentrations (MBC, MFC) [13]: –; MIC [13]: 250 ± 21 µM; selectivity index (SI) [15, 29]: ns (ns—no selectivity); selectivity index (SI) [16, 30]: 1.9; selectivity index (SI) [17, 30]: 2.9; selectivity index (SI) [18, 30]: 1.9; MBC [20]: 125 ± 11 µM; MIC [21]: 500 ± 48 µM; MBC [21]: 500 ± 47 µM; selectivity index (SI) [23, 29]: ns (ns—no selectivity); selectivity index (SI) [25, 29]: ns (ns—no selectivity); selectivity index (SI) [27, 29]: ns (ns—no selectivity); MIC [28]: 62.5 ± 5.4 µM; MBC [28]: 62.5 ± 5.3 µM
